Paper PMC9146377, “Design and Synthesis of Novel Bis-Imidazolyl Phenyl Butadiyne Derivatives as HCV NS5A Inhibitors” (Pharmaceuticals, 2022)
Read-outs that look alike come from different tables or passages of the source.

Experiments:
[1] = tested on: HCV genotype 1b Con-1 subgenomic replicon; assay: Anti-HCV luciferase assay, genotype 1b (Con1) subgenomic replicon in Huh5-2 cells; type: cell-based, Hepatitis C virus; conditions: for HCV Replicon 1b SI50: CC50/EC50, Huh5-2 cells; for EC50: mean of three experiments
Method: (§1) All synthesized compounds were tested against HCV genotype 1b Con-1 subgenomic replicon in the Huh-5-2 stable cell line. Specifically, their activity against viral replication was estimated by measuring firefly luciferase, which is co-expressed by the bicistronic replicon, and their half-maximal effective concentrations (EC50) were determined. In parallel, the half-maximal cytotoxic concentrations (CC50) of the compounds were estimated, and their selective indexes (SI50: CC50/ EC50) were calculated. All novel synthesized compounds were active against HCV 1b with EC50 < 1 µM except for compound 4b (Table 3).
Huh5-2 [65] and Huh7-JFH1 [66] stable cell lines harbor the subgenomic HCV reporter replicon I389luc-ubi-neo/NS3-3′/Con1/5.1 (genotype 1b; strain Con1) and I389luc-ubi-neo/NS3-3′_dg_JFH1 (genotype 2a, JFH1 strain), respectively (kindly provided by R. Bartenschlager, Heidelberg University, Heidelberg, Germany). Huh7.5-3a and Huh7.5-4a stable cell lines harbor the subgenomic HCV reporter replicon S52-SG (Feo) (AII) (genotype 3a; S52 strain) and ED43-SG (Feo) (VYG) (genotype 4a; ED43 strain), respectively (viral constructs kindly provided by C.M. Rice, Rockefeller University, New York, NY, USA). These replicons carry as a first cistron firefly luciferase (F-Luc) and neomycin phosphotransferase genes under the translational control of the HCV internal ribosome entry site (IRES), followed by HCV NS3 to NS5B proteins under the control of the EMCV IRES.
The anti-HCV assay in replicon cells was performed by seeding 1 × 10^4 cells per well in a 96-well plate. After 24 h of incubation at 37 °C (5% CO2) and medium removal, serial dilutions of the test compounds in complete DMEM were added. Cells were lysed after 72 h, and F-Luc activity was measured. The anti-HCV assay for the full-length viral construct H77S.3/GLuc2A was performed after electroporation of Huh7-Lunet cells with viral RNA. Cells were seeded in 96-well plates, the medium was removed 24 h after electroporation, and serial dilutions of the compounds in complete DMEM were added. At 72 h post-treatment, cell supernatants were collected, and G-Luc activity was measured. In addition, the cells were lysed for total protein quantification.
Relative luminescence units (RLU) were expressed as a percentage of the respective units derived from DMSO-treated cells (control). The half-maximal effective concentration (EC50), defined as the concentration of compound that reduces luciferase signal by 50%, was calculated by dose-response curve analysis using Prism 5.0 software (GraphPad Software Inc., San Diego, CA, USA).
The F-Luc activity was measured using the Luciferase Assay System (Promega, Madison, WI, USA), as recommended by the manufacturer. The G-Luc activity was measured using 12 μM coelenterazine (Promega) in assay buffer (50 mM potassium phosphate, pH 7.4, 500 mM NaCl, 1 mM EDTA). Measurements were carried out using a GloMax 20/20 single tube luminometer (Promega) for 10 s. The F-Luc activity was normalized to the total protein amount determined using the Bradford assay reagent (Pierce, Waltham, MA, USA).

[2] = Cytotoxicity assay (intracellular ATP levels) in Huh5-2 replicon cells; type: cell-based; conditions: human, Huh5-2 cells, read-out: HCV Replicon 1b CC50
Method: as §1
Intracellular ATP levels were measured to determine the cytotoxicity of the compounds in the treated cells. In 96-well plates, 10^4 cells per well were seeded, incubated with serial dilutions of the compounds or DMSO as a control for 72 h at 37 °C (5% CO2) and lysed for ATP measurement. ATP levels were measured using the ViaLight HS BioAssay kit (Lonza, Basel, Switzerland) in a GloMax 20/20 single-tube luminometer (Promega) for 1 s, according to the manufacturer’s protocol. Values were normalized to total protein amounts and used to determine the compound concentration causing 50% cell death (CC50). Nonlinear regression analysis was performed using Prism 5.0 software (GraphPad Software Inc., San Diego, CA, USA).

[3] = Hepatitis C virus, Huh-5-2, 72 h, read-out: HCV Replicon 1b EC50, Huh5-2 cells, Con1 strain, F-Luc, 72 h
[4] = Huh5-2 cells, Con1 strain, F-Luc, 72 h, read-out: HCV Replicon 1b EC50
[5] = Hepatitis C virus, Huh-5-2, 72 h, Huh5-2 cells, Con1 strain, F-Luc, 72 h, read-out: HCV Replicon 1b EC50

| SMILES | HCV Replicon 1b SI50 [1] | EC50 [1, 3] [nM] | EC50 [1, 4] [nM] | CC50 at 72 h [2] [nM] | melting point [°C] | EC50 [1, 5] [nM] |
| --- | --- | --- | --- | --- | --- | --- |
| COC(=O)N[C@H](CC(C)C)C(=O)N1CCC[C@H]1c1ncc(-c2cccc(C#CC#Cc3cccc(-c4cnc([C@@H]5CCCN5C(=O)[C@@H](CC(C)C)NC(=O)OC)[nH]4)c3)c2)[nH]1 [Compound 6a, Dimethyl ((2R,2′R)-((2S,2′S)-((buta-1,3-diyne-1,4-diylbis(3,1-phenylene))bis(1H-imidazole-5,2-diyl))bis(pyrrolidine-2,1-diyl))bis(4-methyl-1-oxopentane-1,2-diyl))dicarbamate] | >1034.23 | 96.6 | 96.7 | > 100000 | 111 to 113 |  |
| COC(=O)N[C@@H](C(=O)N1CCC[C@H]1c1ncc(-c2ccc(C#CC#Cc3ccc(-c4cnc([C@@H]5CCCN5C(=O)[C@H](NC(=O)OC)c5ccccc5)[nH]4)cc3)cc2)[nH]1)c1ccccc1 [Compound 10b, Dimethyl ((1R,1′R)-((2S,2′S)-((buta-1,3-diyne-1,4-diylbis(4,1-phenylene))bis(1H-imidazole-5,2-diyl))bis(pyrrolidine-2,1-diyl))bis(2-oxo-1-phenylethane-2,1-diyl))dicarbamate] | >1180.77 |  |  | > 100000 | 125 to 127 | 84.7 |
| CCOC(=O)N[C@H](CC(C)C)C(=O)N1CCC[C@H]1c1ncc(-c2cccc(C#CC#Cc3cccc(-c4cnc([C@@H]5CCCN5C(=O)[C@@H](CC(C)C)NC(=O)OCC)[nH]4)c3)c2)[nH]1 [Compound 8a, Diethyl ((2R,2′R)-((2S,2′S)-((buta-1,3-diyne-1,4-diylbis(3,1-phenylene))bis(1H-imidazole-5,2-diyl))bis(pyrrolidine-2,1-diyl))bis(4-methyl-1-oxopentane-1,2-diyl))dicarbamate] | >1170.82 | 85.4 | 85.4 | > 100000 | 109 to 111 |  |
| COC(=O)N[C@@H](CC(C)C)C(=O)N1CCC[C@H]1c1ncc(-c2ccc(C#CC#Cc3ccc(-c4cnc([C@@H]5CCCN5C(=O)[C@H](CC(C)C)NC(=O)OC)[nH]4)cc3)cc2)[nH]1 [Compound 5b, Dimethyl ((2S,2′S)-((2S,2′S)-((buta-1,3-diyne-1,4-diylbis(4,1-phenylene))bis(1H-imidazole-5,2-diyl))bis(pyrrolidine-2,1-diyl))bis(4-methyl-1-oxopentane-1,2-diyl))dicarbamate] | >6203.47 |  | 16.1 | > 100000 | 124 to 126 | 16.1 |
| CCCCOC(=O)N[C@H](C(=O)N1CCC[C@H]1c1ncc(-c2ccc(C#CC#Cc3ccc(-c4cnc([C@@H]5CCCN5C(=O)[C@@H](NC(=O)OCCCC)C(C)C)[nH]4)cc3)cc2)[nH]1)C(C)C [Compound 4b, Dibutyl ((2S,2′S)-((2S,2′S)-((buta-1,3-diyne-1,4-diylbis(4,1-phenylene))bis(1H-imidazole-5,2-diyl))bis(pyrrolidine-2,1-diyl))bis(3-methyl-1-oxobutane-1,2-diyl))dicarbamate] |  |  |  | > 100000 | 136 to 138 | > 1000 |
| CCOC(=O)N[C@H](CC(C)C)C(=O)N1CCC[C@H]1c1ncc(-c2ccc(C#CC#Cc3ccc(-c4cnc([C@@H]5CCCN5C(=O)[C@@H](CC(C)C)NC(=O)OCC)[nH]4)cc3)cc2)[nH]1 [Compound 8b, Diethyl ((2R,2′R)-((2S,2′S)-((buta-1,3-diyne-1,4-diylbis(4,1-phenylene))bis(1H-imidazole-5,2-diyl))bis(pyrrolidine-2,1-diyl))bis(4-methyl-1-oxopentane-1,2-diyl))dicarbamate] | >1289.98 |  |  | > 100000 | 129 to 132 | 77.5 |
| COC(=O)N[C@H](C(=O)N1CCC[C@H]1c1ncc(-c2cccc(C#CC#Cc3cccc(-c4cnc([C@@H]5CCCN5C(=O)[C@@H](NC(=O)OC)c5ccccc5)[nH]4)c3)c2)[nH]1)c1ccccc1 [Compound 9a, Dimethyl ((1S,1′S)-((2S,2′S)-((buta-1,3-diyne-1,4-diylbis(3,1-phenylene))bis(1H-imidazole-5,2-diyl))bis(pyrrolidine-2,1-diyl))bis(2-oxo-1-phenylethane-2,1-diyl))dicarbamate] | >1611.86 | 62 | 62 | > 100000 | 125 to 127 |  |
